The source of these data is paper PMC9701179, “New tricyclic systems as photosensitizers towards triple negative breast cancer cells” (Archives of Pharmacal Research, 2022).

One data set relates to MDA-MB-231 cells. In words: MTT cytotoxicity/photocytotoxicity test on human TNBC MDA-MB-231 cells. In kind it is cell-based. Conditions: for IC50: Homo sapiens. The method, then:
The irradiation device used for the irradiation of cell cultures during the assays was a black box equipped with two Philips UVA lamps with an irradiance of 17 mW cm^−2 and a centered emission peak at 365 nm; UVA irradiance was measured using a Waldmann Variocontrol radiometer, equipped with a UVA sensor. The box was maintained at room temperature inside with a fan and the multiwell plates were placed onto a water-refrigerated metal block.
Human triple negative (TNBC) breast MDA-MB-231 carcinoma cells were obtained from American Type Culture Collection (ATCC, Rockville, MD, USA). Human embryonic kidney HEK293 cells were obtained from the European Collection of Cell Cultures (ECACC, Salisbury, UK). Cell lines were maintained in the logarithmic phase at 37 °C in a 5% CO2 atmosphere using the following culture media containing 10% foetal calf serum (Euroclone, Milan, Italy), antibiotics (50 units/mL penicillin and 50 μg/mL streptomycin) and 2 mM l-glutamine: (i) RPMI-1640 medium (Euroclone, Milan, Italy) for MDA-MB-231 4 cells; (ii) DMEM (Euroclone, Milan, Italy) for HEK293 cells.
Cells (5–8 × 10^3 cells/well, dependent upon the growth characteristics of the cell line) were seeded in 96-well microplates in growth medium (100 μL). After 24 h, the medium was removed and replaced with a fresh one containing the compound to be studied at the appropriate concentration. Triplicate cultures were established for each treatment. For photocytotoxicity studies, after 1 h of incubation the medium was replaced with PBS and cells were treated with 2.0 J cm^−2 of UVA light. After irradiation, PBS was replaced with complete proliferation media. For pre-irradiation studies, instead, compounds in PBS were irradiated with 2.0 J cm^−2 of UVA light and subsequently cells were treated with pre-irradiated solutions. Following 24 h, each well was treated with 10 μL of a 5 mg/mL MTT saline solution, and following 5 h of incubation, 100 μL of a sodium dodecyl sulfate (SDS) solution in HCl 0.01 M were added. After an overnight incubation, cell growth inhibition was detected by measuring the absorbance of each well at 570 nm using a Bio-Rad 680 microplate reader. Mean absorbance for each drug dose was expressed as a percentage of the control untreated well absorbance and plotted against drug concentration. IC50 values, the drug concentrations that reduce the mean absorbance at 570 nm to 50% of those in the untreated control wells, were calculated by the four-parameter logistic (4-PL) model. Evaluation was based on means from at least four independent experiments.
The new synthetized pyrrolo[1,2-h][1,7]naphthyridinones 7 and pyrido[2,3-c]pyrrolo[1,2-a]azepinones 8 were screened for their cytotoxicity (in the dark) and photocitotoxicity (upon UVA light irradiation at 2.0 J/cm^2) profile on human TNBC cells, MDA-MB-231. The cytotoxicity/photocytotoxicity parameters, expressed in terms of IC50 values obtained by MTT test after 24 h of drug-exposure, are listed in Table 2.

Setting [1] is: MDA-MB-231, in the dark, 1 h pre-treatment, recovered for total 24 h, read-out: Dark IC50 (µM) ± S.D.
Where [2] appears, read: light or radiation study, MDA-MB-231, 1 h pre-treatment, UVA 2.0 J/cm^2, recovered for total 24 h, read-out: UVA (2.0 J/cm^2) IC50 (µM) ± S.D.

Where two headings read alike, the source gives them in different places.

Consider `O=c1[nH]c2c(cc1S(=O)(=O)c1ccccc1)CCn1cccc1-2` [Compound 7a, 3-(benzenesulfonyl)-5,6-dihydropyrrolo[1,2-h][1,7]naphthyridin-2(1H)-one], for which the melting point (usually the temperature of the solid-liquid transition) was in the range of 317 to 318 °C. In addition, the IC50 with MDA-MB-231 cells (setting [1]) was greater than 50 µM. Further, the IC50 with MDA-MB-231 cells (setting [2]) is greater than 50 µM.

As for `CCOC(=O)c1ccc2n1CCc1cc(S(=O)(=O)c3ccccc3)c(=O)[nH]c1-2` [Compound 7b, Ethyl 3-(benzenesulfonyl)-2-oxo-1,2,5,6-tetrahydropyrrolo[1,2-h][1,7]naphthyridine-8-carboxylate], the IC50 is greater than 50 µM in the data set with MDA-MB-231 cells (setting [1]) and 21 ± 0.4 µM with MDA-MB-231 cells (setting [2]).

Consider `CC(C)OC(=O)c1ccc2n1CCc1cc(S(=O)(=O)c3ccccc3)c(=O)[nH]c1-2` [Compound 7c, Propan-2-yl 3-(benzenesulfonyl)-2-oxo-1,2,5,6-tetrahydropyrrolo[1,2-h][1,7]naphthyridine-8-carboxylate], for which the IC50 in the data set with MDA-MB-231 cells (setting [1]) and in the data set on MDA-MB-231 cells (setting [2]) was greater than 50 µM throughout.

Regarding `Cn1c2c(cc(S(=O)(=O)c3ccccc3)c1=O)CCn1cccc1-2` [Compound 7d, 1-Methyl-3-(benzenesulfonyl)-5,6-dihydropyrrolo[1,2-h][1,7]naphthyridin-2(1H)-one], the melting point was in the range of 268 to 269 °C. For the same compound, the IC50 with MDA-MB-231 cells (setting [1]) is greater than 50 µM. The IC50 in the data set on MDA-MB-231 cells (setting [2]) is greater than 50 µM.

For `CC(C)OC(=O)c1ccc2n1CCc1cc(S(=O)(=O)c3ccccc3)c(=O)n(C)c1-2` [Compound 7f, Propan-2-yl 3-(benzenesulfonyl)-1-methyl-2-oxo-1,2,5,6-tetrahydropyrrolo[1,2-h][1,7]naphthyridine-8-carboxylate], the IC50 with MDA-MB-231 cells (setting [1]) and in the data set with MDA-MB-231 cells (setting [2]) was greater than 50 µM each time.

In turn, `COc1nc2c(cc1S(=O)(=O)c1ccccc1)CCn1cccc1-2` [Compound 7g, 2-methoxy-3-(phenylsulfonyl)-5,6-dihydropyrrolo[1,2-h][1,7]naphthyridine] yielded a melting point of 210 to 211 °C. Besides, in the data set with MDA-MB-231 cells (setting [1]), the IC50 is greater than 50 µM. The IC50 with MDA-MB-231 cells (setting [2]) is greater than 50 µM.

`COc1nc2c(cc1S(=O)(=O)c1ccccc1)CCn1c(C(=O)OC(C)C)ccc1-2` [Compound 7i, Propan-2-yl 3-(benzenesulfonyl)-2-methoxy-5,6-dihydropyrrolo[1,2-h][1,7]naphthyridine-8-carboxylate]: the values for the IC50 in the data set with MDA-MB-231 cells (setting [1]) and in the data set on MDA-MB-231 cells (setting [2]) were greater than 50 µM and 7.9 ± 0.5 µM, respectively.

The compound `CCOC(=O)C1(Br)C=CC2=C3NC(=O)C(S(=O)(=O)c4ccccc4)C=C3CCN21` (centres unmarked) [Compound 7j, Ethyl 3-(benzenesulfonyl)-8-bromo-2-oxo-1,2,5,6-tetrahydropyrrolo[1,2-h][1,7]naphthyridine-8-carboxylate] displayed a melting point of 196 to 197 °C.

The compound `CC(C)OC(=O)C1(Br)C=CC2=C3NC(=O)C(S(=O)(=O)c4ccccc4)C=C3CCN21` (centres unmarked) [Compound 7k, Propan-2-yl 3-(benzenesulfonyl)-8-bromo-2-oxo-1,2,5,6-tetrahydropyrrolo[1,2-h][1,7]naphthyridine-8-carboxylate] yielded a melting point of 174 to 175 °C.

For `CCOC(=O)c1ccc2n1CCCc1cc(S(=O)(=O)c3ccccc3)c(=O)[nH]c1-2` [Compound 8a, Ethyl 3-(benzenesulfonyl)-2-oxo-1,5,6,7-tetrahydro-2H-pyrido[2,3-c]pyrrolo[1,2-a]azepine-9-carboxylate], the IC50 in the data set on MDA-MB-231 cells (setting [1]) and in the data set with MDA-MB-231 cells (setting [2]) was greater than 50 µM each time.

Turning to `CC(C)OC(=O)c1ccc2n1CCCc1cc(S(=O)(=O)c3ccccc3)c(=O)[nH]c1-2` [Compound 8b, Propan-2-yl 3-(benzenesulfonyl)-2-oxo-1,5,6,7-tetrahydro-2H-pyrido[2,3-c]pyrrolo[1,2-a]azepine-9-carboxylate], the IC50 in the data set with MDA-MB-231 cells (setting [1]) and in the data set with MDA-MB-231 cells (setting [2]) was greater than 50 µM throughout.

As to `CCOC(=O)c1ccc2n1CCCc1cc(S(=O)(=O)c3ccccc3)c(=O)n(C)c1-2` [Compound 8c, Ethyl 3-(benzenesulfonyl)-1-methyl-2-oxo-1,5,6,7-tetrahydro-2H-pyrido[2,3-c]pyrrolo[1,2-a]azepine-9-carboxylate], the IC50 with MDA-MB-231 cells (setting [1]) is greater than 50 µM; with MDA-MB-231 cells (setting [2]), 24.9 ± 2.8 µM.

In the case of `COc1nc2c(cc1S(=O)(=O)c1ccccc1)CCCn1c(C(=O)OC(C)C)ccc1-2` [Compound 8f, Propan-2-yl 3-(benzenesulfonyl)-2-methoxy-6,7-dihydro-5H-pyrido[2,3-c]pyrrolo[1,2-a]azepine-9-carboxylate], the results for the IC50 with MDA-MB-231 cells (setting [1]) and in the data set on MDA-MB-231 cells (setting [2]) were greater than 50 µM and 23.7 ± 1.5 µM, respectively.

`CCOC(=O)C1(Br)C=CC2=C3NC(=O)C(S(=O)(=O)c4ccccc4)C=C3CCCN21` (centres unmarked) [Compound 8g, Ethyl 3-(benzenesulfonyl)-9-bromo-2-oxo-1,5,6,7-tetrahydro-2H-pyrido[2,3-c]pyrrolo[1,2-a]azepine-9-carboxylate] came in with a melting point of 172 to 173 °C.

As for `CC(C)OC(=O)C1(Br)C=CC2=C3NC(=O)C(S(=O)(=O)c4ccccc4)C=C3CCCN21` (centres unmarked) [Compound 8h, Propan-2-yl 3-(benzenesulfonyl)-9-bromo-2-oxo-1,5,6,7-tetrahydro-2H-pyrido[2,3-c]pyrrolo[1,2-a]azepine-9-carboxylate], the melting point lay in the range of 167 to 168 °C. Moreover, in the data set on MDA-MB-231 cells (setting [1]), the IC50 is greater than 50 µM. Besides, the IC50 in the data set with MDA-MB-231 cells (setting [2]) was greater than 50 µM. Also, in the data set with MDA-MB-231 cells (MDA-MB-231, 1 h pre-treatment, UVA 2.0 J/cm^2, recovered for total 24 h), the “UVA (2.0 J/cm^2) IC50 (µM) ± S.D” value is “completely ineffective in inhibiting cancer cell proliferation upon irradiation”.
